This note sets out measurements from US6586631B1, “Acetoacetarylamides” (Lonza, Ltd., priority 1998, dated 2003).

A short description of this series: Time to dissolve in 0.5 M aqueous sodium hydroxide solution at 20° C. The class given is physicochemical. Here is the method:
The novel acetoacetarylamides dissolve in a 0.5 N sodium hydroxide solution at 20° C. in from approximately half to one third of the time required by a dried acetoacetarylide prepared according to the prior art.
Water was introduced into a 1.5 l bench stirrer and adjusted to a temperature of 20° C. The stirrer was then rendered inert using nitrogen. Using two pumps, 133 g of aniline and 124 g of diketene were metered in over the course of 10 minutes. The addition of aniline was delayed by about 30 sec. At the end of the metered addition, the reaction temperature increased to 65° to 70° C. The mixture was then allowed to react for a further 30 minutes, and the reaction temperature dropped to 60° C. Vacuum cooling (450 to 120 mbar) was used to cool the mixture to 40° C., and the liquid acetoacetanilide began to crystallize, as a result of which the temperature immediately rose to about 58° C. The mixture was then cooled to 15° C. At 15° C., the solid product was centrifuged off, washed with 50 ml of water and dried at 50° C. under reduced pressure for 12 h. This method gave acetoacetanilide having a content of >99.5 percent (with a residual moisture content of <0.1 percent). The yield in terms of aniline was 97.1 percent, and in terms of diketene was 92.0 percent. A crystalline product having an average particle size of 450 to 500 μm was obtained. 50 g of the resulting acetoacetanilide (dry, 99.5 percent, water content <0.1 percent) dissolved completely at 20° C. in 500 ml of a 0.5 M aqueous sodium hydroxide solution in 25 minutes.
This gave white flakes having an average thickness of 0.08 mm and an average diameter of from 0.5 mm to […]. 55.6 g of the resulting acetoacetanilide (moist, content of acetoacetanilide 89.5 percent, water content 10 percent) dissolved completely at 20° C. in 500 ml of a 0.5 M aqueous sodium hydroxide solution in about 15 minutes.

Where [1] appears, read: 55.6 g (moist, content 89.5 percent, water content 10 percent) in 500 ml of 0.5 M aqueous sodium hydroxide solution.
[2] abbreviates: 60 g moist pastilles in 700 ml of 0.5 M aqueous sodium hydroxide solution.
The mark [3] stands for this setting: 60 g moist pastilles in 500 ml of 0.5 M aqueous sodium hydroxide solution.

Regarding `CC(=O)CC(=O)Nc1ccccc1` [Example 6, Acetoacetanilide], the “time to dissolve completely” value under setting [1] is given as “about 17 minutes”.

On to `CC(=O)CC(=O)Nc1ccc(C)cc1C` [Example 9, m-acetoacetoxylidide], for which the time to dissolve result under setting [2] is listed as “about 18 minutes”. As to `CC(=O)CC(=O)Nc1ccccc1` [Example 4, Acetoacetanilide], the “time to dissolve completely” value under setting [1] is “about 15 minutes”. In the case of `CC(=O)CC(=O)Nc1ccccc1` [Example 5, Acetoacetanilide], the “time to dissolve completely” value under setting [1] is reported as “about 17 minutes”. On to `CC(=O)CC(=O)Nc1ccccc1` [Example 1, Acetoacetanilide, reference compound], for which the “time to dissolve completely” value (50 g (dry, 99.5 percent, water content <0.1 percent) in 500 ml of 0.5 M aqueous sodium hydroxide solution) came out at 25 min.

Turning to `CC(=O)CC(=O)Nc1ccccc1Cl` [Example 10, o-Acetoacetochloroanilide], the time to dissolve entry under setting [3] is “about 18 minutes”. Turning to `COc1ccccc1NC(=O)CC(C)=O` [Example 7, o-acetoacetanisidide], the time to dissolve result under setting [3] is listed as “about 20 minutes”. `CC(=O)CC(=O)Nc1ccccc1C` [Example 8, o-acetoacetotoluidide]: the time to dissolve entry under setting [2] is “about 19 minutes”.
